# Experimental data from ChEMBL document CHEMBL1201862, “PubChem BioAssay data set” (2004).
# Calls of active or inactive are those of the source.
# Experiments:
# [1] = target: Sphingosine 1-phosphate receptor 2 (Homo sapiens, UniProt O95136); assay: Late-stage fluorescence-based dose-response cell-based counterscreen assay to identify agonists of the Sphingosine 1-Phosphate Receptor 3 (S1P3): Sphingosine 1-Phosphate Receptor 2 (S1P2) agonist assay.; assay type: functional
# [2] = target: T1, Sphingosine 1-phosphate receptor 4 (Homo sapiens, UniProt O95977); assay: Late-stage fluorescence-based dose-response cell-based counterscreen assay to identify agonists of the Sphingosine 1-Phosphate Receptor 3 (S1P3): Sphingosine 1-Phosphate Receptor 4 (S1P4) agonist assay.; assay type: functional
# T1 sequence (O95977 whole entry): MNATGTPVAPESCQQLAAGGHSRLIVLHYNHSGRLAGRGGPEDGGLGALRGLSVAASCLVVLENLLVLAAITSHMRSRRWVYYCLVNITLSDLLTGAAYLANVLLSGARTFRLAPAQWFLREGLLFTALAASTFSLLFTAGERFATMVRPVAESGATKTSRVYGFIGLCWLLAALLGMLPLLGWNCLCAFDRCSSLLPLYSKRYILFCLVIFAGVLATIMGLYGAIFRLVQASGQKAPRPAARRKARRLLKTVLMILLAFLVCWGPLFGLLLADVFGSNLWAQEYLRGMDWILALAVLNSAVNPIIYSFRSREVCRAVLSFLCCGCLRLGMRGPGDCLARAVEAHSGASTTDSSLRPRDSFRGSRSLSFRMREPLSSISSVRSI
# [3] = target: T2, Delta-type opioid receptor (Homo sapiens, UniProt P41143); assay: HTS Image-Based Screen for Antagonists of the DOR Receptor. [Related pubchem assays (depositor defined):AID1777, AID1785, AID1786, AID2133]; assay type: functional
# T2 sequence (P41143 whole entry): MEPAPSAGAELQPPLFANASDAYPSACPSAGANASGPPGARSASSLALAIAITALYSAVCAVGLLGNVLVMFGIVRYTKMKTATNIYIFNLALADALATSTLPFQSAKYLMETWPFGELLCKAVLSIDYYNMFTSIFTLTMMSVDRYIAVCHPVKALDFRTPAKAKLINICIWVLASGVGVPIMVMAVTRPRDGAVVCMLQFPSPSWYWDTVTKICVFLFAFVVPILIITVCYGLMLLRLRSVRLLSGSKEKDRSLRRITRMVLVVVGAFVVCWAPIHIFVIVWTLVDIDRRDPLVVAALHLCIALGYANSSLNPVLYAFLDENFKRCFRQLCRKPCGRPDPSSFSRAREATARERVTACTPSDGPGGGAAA
# [4] = target: Mu-type opioid receptor (Homo sapiens, UniProt P35372); assay: HTS Image-Based Screen for Agonists of the MOR Receptor. [Related pubchem assays (depositor defined):AID1777, AID1785, AID1786, AID2133]; assay type: functional;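 also: imaging of beta-arrestin GFP recruitment into spots after receptor activation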
# Sequence of Mu-type opioid receptor (P35372 whole entry): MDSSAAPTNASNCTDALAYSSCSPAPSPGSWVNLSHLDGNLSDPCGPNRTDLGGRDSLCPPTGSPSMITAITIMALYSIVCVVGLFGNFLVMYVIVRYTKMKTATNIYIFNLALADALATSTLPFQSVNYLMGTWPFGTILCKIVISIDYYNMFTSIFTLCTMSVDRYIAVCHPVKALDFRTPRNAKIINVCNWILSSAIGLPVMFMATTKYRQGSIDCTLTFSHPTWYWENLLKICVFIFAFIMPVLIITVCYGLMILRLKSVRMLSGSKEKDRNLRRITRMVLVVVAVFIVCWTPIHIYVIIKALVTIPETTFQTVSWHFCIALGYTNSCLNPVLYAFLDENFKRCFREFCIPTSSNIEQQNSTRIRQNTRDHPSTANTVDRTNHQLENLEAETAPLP
# [5] = test system: Streptococcus sp. 'group A'; assay: Streptococcus pyogenes SK(-)GAS viability under kanamycin – luminescence, BacTiterGlo, confirmation, counter-screen for streptokinase expression inhibitor project, dose response (AID 1900); assay type: functional, organism-based
# [6] = target: T2, Delta-type opioid receptor; assay: HTS Image-Based Screen for Agonists of the DOR Receptor. [Related pubchem assays (depositor defined):AID1777, AID1786, AID2133]; assay type: functional
# [7] = target: T3, Kappa-type opioid receptor (Homo sapiens, UniProt P41145); assay type: functional
# T3 sequence (P41145 whole entry): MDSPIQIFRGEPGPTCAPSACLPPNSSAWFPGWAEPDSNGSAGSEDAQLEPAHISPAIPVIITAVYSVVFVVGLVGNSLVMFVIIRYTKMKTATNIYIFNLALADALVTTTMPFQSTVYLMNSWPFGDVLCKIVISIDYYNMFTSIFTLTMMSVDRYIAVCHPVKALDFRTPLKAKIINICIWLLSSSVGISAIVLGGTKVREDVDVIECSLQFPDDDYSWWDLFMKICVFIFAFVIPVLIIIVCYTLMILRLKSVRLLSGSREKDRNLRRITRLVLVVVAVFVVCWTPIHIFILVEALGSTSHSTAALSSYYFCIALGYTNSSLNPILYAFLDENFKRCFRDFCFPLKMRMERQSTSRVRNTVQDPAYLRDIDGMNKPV
# [8] = target: Beta-galactosidase (Escherichia coli, UniProt Q8VNN2); assay type: functional
# Sequence of Beta-galactosidase (Q8VNN2 whole entry): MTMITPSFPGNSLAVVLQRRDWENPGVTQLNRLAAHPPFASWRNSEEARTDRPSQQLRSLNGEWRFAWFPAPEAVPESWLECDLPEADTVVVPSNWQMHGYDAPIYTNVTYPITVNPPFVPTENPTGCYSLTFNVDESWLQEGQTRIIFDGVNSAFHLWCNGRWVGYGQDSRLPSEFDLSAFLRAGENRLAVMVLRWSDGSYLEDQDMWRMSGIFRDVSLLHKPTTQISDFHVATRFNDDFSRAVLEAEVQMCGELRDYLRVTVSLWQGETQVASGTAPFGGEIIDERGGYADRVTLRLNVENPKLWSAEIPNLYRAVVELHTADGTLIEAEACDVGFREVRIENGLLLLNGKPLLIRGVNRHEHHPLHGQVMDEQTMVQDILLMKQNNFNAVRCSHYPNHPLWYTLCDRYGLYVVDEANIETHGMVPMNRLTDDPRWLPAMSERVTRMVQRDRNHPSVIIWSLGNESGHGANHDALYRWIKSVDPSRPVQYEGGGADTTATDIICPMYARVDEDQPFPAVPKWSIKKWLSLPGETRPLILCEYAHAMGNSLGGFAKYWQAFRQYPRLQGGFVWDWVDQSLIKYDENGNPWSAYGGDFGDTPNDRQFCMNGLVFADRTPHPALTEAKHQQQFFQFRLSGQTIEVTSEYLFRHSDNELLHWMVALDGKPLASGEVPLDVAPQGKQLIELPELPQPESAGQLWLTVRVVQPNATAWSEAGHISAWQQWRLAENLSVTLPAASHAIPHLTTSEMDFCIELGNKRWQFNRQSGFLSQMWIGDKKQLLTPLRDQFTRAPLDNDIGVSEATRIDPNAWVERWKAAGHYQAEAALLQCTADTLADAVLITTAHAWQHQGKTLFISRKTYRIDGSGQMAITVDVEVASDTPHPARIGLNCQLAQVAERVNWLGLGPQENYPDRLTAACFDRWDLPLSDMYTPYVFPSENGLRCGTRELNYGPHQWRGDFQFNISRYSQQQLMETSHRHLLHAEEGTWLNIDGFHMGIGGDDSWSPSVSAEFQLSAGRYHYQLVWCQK
# [9] = target: T3, Kappa-type opioid receptor; assay type: functional; remark: listed apart in the source
# [10] = test system: Streptococcus; assay: GAS UMAA2166 growth inhibition – luminescence, BacTiterGlo, counter-screen for streptokinase expression inhibitor project, dose response (AID 1915); assay type: functional, organism-based;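 also: potency for reduction of bacterial viability or growth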
# [11] = target: Heat shock protein HSP 90-alpha (Homo sapiens, UniProt P07900); assay type: functional, organism-based
# [12] = target: HSP90 (Plasmodium falciparum 3D7, UniProt Q8IL32); assay type: functional, organism-based
# Sequence of HSP90 (Q8IL32 whole entry): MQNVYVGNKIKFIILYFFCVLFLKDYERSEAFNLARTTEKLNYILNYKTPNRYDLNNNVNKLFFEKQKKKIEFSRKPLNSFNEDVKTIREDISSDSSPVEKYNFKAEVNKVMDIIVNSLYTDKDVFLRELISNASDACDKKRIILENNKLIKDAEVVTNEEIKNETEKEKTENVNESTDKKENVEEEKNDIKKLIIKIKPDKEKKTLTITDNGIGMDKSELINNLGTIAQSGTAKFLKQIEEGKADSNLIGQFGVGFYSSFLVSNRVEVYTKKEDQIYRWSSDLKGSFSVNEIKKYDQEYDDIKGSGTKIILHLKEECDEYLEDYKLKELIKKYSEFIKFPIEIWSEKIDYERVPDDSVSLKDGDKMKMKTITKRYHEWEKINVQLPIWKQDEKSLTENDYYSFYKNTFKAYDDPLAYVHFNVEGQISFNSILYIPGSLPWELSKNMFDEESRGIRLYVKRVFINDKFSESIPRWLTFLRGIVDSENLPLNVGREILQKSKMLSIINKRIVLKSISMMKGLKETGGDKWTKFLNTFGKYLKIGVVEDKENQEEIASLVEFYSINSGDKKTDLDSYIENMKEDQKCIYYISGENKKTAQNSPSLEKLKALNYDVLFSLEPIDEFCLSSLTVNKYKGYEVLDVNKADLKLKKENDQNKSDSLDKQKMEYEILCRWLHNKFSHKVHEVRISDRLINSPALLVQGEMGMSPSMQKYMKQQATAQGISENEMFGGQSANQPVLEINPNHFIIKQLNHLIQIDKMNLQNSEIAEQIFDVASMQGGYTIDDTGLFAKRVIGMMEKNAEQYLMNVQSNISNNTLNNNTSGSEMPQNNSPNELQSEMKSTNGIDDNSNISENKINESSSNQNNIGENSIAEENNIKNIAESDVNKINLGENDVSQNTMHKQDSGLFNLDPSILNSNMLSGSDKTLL
# [13] = rise of 2N DNA cells, HeLa – IC50, dose response (AID 1117349); assay type: functional, cell-based
# [14] = CellTiter-Glo luminescence survival assay, SW480 colon tumor line, concentration-response curve, half-maximal inhibitory concentration (AID 1117338); assay type: functional
# [15] = RKO cell viability reduction, dose response, CellTiter-Glo luminescence (AID 1117322); assay type: functional
# [16] = cytotoxicity toward HCT116 cells – cell-based, CellTiter-Glo luminescence, IC50, dose response (AID 1117332); assay type: functional; settings: HCT-116
# [17] = SNU-C1 cell viability reduction, dose response, CellTiter-Glo luminescence (AID 1117323); assay type: functional, cell-based
# [18] = cytotoxicity toward Colo320 cells – cell-based, CellTiter-Glo luminescence, IC50, dose response (AID 1117334); assay type: functional; settings: COLO 320
# [19] = rise of 4N DNA cells, HeLa – IC50, dose response (AID 1117351); assay type: functional, cell-based
# [20] = cytotoxicity toward HT-29 cells – cell-based, CellTiter-Glo luminescence, IC50, dose response (AID 1117330); assay type: functional
# [21] = Reduced DLD-1 viability, concentration-response, CellTiter-Glo luminescence (AID 1117352); assay type: functional
# [22] = HCT116 cell viability decrease, GSK3B pretreatment – CellTiter-Glo, IC50, dose response (AID 1117339); assay type: functional; settings: HCT-116
# Sequence of Sphingosine 1-phosphate receptor 2 (O95136 whole entry): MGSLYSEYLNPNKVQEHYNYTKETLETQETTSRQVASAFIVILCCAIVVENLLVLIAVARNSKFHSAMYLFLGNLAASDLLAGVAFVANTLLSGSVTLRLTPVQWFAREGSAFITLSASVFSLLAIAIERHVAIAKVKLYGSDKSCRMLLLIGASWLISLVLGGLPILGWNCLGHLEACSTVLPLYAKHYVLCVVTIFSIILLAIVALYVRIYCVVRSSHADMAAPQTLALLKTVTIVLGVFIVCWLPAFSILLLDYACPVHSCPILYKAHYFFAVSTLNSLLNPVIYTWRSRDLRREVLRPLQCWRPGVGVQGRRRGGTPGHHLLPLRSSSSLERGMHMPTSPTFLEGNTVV
compound,measurement,setting,value
CC1CCCCC1N(C(=O)c1cc(C2CC2)on1)C1CCOCC1 (configuration not stated),EC50,[1],> 50 µM (inactive)
same,EC50,[2],> 50 µM (inactive)
Oc1c(Cl)cc(Cl)c2cccnc12 [CHLOROXINE],IC50,[3],> 32 µM (inactive)
same,EC50,[4],> 32 µM (inactive)
same,EC50,[5],0.258 µM (active)
same,EC50,[6],> 32 µM (inactive)
same,IC50,[7],4.56 µM (active)
same,EC50,[8],> 31.5 µM (inactive)
same,IC50,[9],> 32 µM
same,EC50,[10],3.31 µM (active)
same,AC50,[11],1.05 µM (active)
same,AC50,[12],0.511 µM (active)
same,IC50,[13],> 10 µM (inactive)
same,IC50,[14],0.0438 µM (active)
same,IC50,[15],0.0627 µM (active)
same,IC50,[16],0.0475 µM (active)
same,IC50,[17],0.495 µM (active)
same,IC50,[18],0.0493 µM (active)
same,IC50,[19],> 10 µM (inactive)
same,IC50,[20],> 20 µM (inactive)
same,IC50,[21],0.409 µM (active)
same,IC50,[22],0.0393 µM (active)
